82 compounds from a flash point compilation (Sun et al. 2020) can be followed below.

Each structure is given as a SMILES string.

Compound `COP(=S)(OC)Oc1ccc(C#N)cc1` [4-dimethoxyphosphinothioyloxybenzonitrile] had a flash point of 104.00 °C.

For the compound `CCOc1ccc(N)cc1` [4-ethoxyaniline], the flash point stood at 116.00 °C.

Turning to `CCc1ccc(O)cc1` [4-ethylphenol], the flash point was 104.00 °C.

In the case of `Nc1ccc(F)cc1` [4-fluoroaniline], the flash point came out at 74.00 °C.

With `CC(=O)CC(C)(C)O` [4-hydroxy-4-methylpentan-2-one], the flash point was 52.00 °C.

For `COC(C)(C)CC(C)=O` [4-methoxy-4-methylpentan-2-one], the flash point was found to be 61.00 °C.

Compound `COc1ccc(C=O)cc1` [4-methoxybenzaldehyde] returned a flash point of 116.00 °C.

As for `CC1=CCC(O)(C(C)C)CC1` (configuration not stated) [4-methyl-1-propan-2-ylcyclohex-3-en-1-ol], the flash point was determined as 79.00 °C.

For `Cc1ccc(N)cc1N` [4-methylbenzene-1,3-diamine], the flash point is 149.00 °C.

`Cc1ccc(S(N)(=O)=O)cc1` [4-methylbenzenesulfonamide] returned a flash point of 202.00 °C.

`Cc1ccc(S(=O)(=O)O)cc1` [4-methylbenzenesulfonic acid] showed a flash point of 184.00 °C.

The compound `Cc1ccc(S(=O)(=O)Cl)cc1` [4-methylbenzenesulfonyl chloride] registered a flash point of 128.00 °C.

As to `CN1CCOCC1` [4-methylmorpholine], the flash point was 24.00 °C.

`CC1CC(=O)O1` (configuration not stated) [4-methyloxetan-2-one]: the flash point came to 60.00 °C.

With `C=CCC(C)C` [4-methylpent-1-ene], the flash point is -32.00 °C.

`CC(C)CC(C)N` (configuration not stated) [4-methylpentan-2-amine] registered a flash point of 13.00 °C.

`CC(=O)OC(C)CC(C)C` (configuration not stated) [4-methylpentan-2-yl acetate] came in with a flash point of 45.00 °C.

As for `Cc1ccc(O)cc1` [4-methylphenol], the flash point stood at 86.00 °C.

In the case of `Cc1ccncc1` [4-methylpyridine], the flash point was found to be 57.00 °C.

`O=[N+]([O-])c1ccc(Nc2ccccc2)cc1` [4-nitro-N-phenylaniline] had a flash point of 190.00 °C.

On to `Nc1ccc([N+](=O)[O-])cc1` [4-nitroaniline], for which the flash point amounted to 199.00 °C.

For `O=C(O)c1ccc([N+](=O)[O-])cc1` [4-nitrobenzoic acid], the flash point turned out to be 202.00 °C.

Regarding `O=[N+]([O-])c1ccc(O)cc1` [4-nitrophenol], the flash point was 192.00 °C.

For the compound `CCCCCCCCCc1ccc(O)cc1` [4-nonylphenol], the flash point was 113.00 °C.

As to `CCCCCCCCc1ccc(Nc2ccc(CCCCCCCC)cc2)cc1` [4-octyl-N-(4-octylphenyl)aniline], the flash point turned out to be 213.00 °C.

Consider `Oc1ccc(-c2ccccc2)cc1` [4-phenylphenol], for which the flash point is 166.00 °C.

For the compound `CC(C)(C)c1ccc(O)cc1` [4-tert-butylphenol], the flash point was 113.00 °C.

`CCCCOCCOCCOCc1cc2c(cc1CCC)OCO2` [5-[2-(2-butoxyethoxy)ethoxymethyl]-6-propyl-1,3-benzodioxole] showed a flash point of 171.00 °C.

Turning to `C=Cc1ccc(C)nc1` [5-ethenyl-2-methylpyridine], the flash point was found to be 74.00 °C.

`CC1CCC(C(C)C)C(O)C1` (configuration not stated) [5-methyl-2-propan-2-ylcyclohexan-1-ol] came in with a flash point of 91.00 °C.

In the case of `Cc1ccc(C(C)C)c(O)c1` [5-methyl-2-propan-2-ylphenol], the flash point came to 110.00 °C.

On to `CCC(=O)CC(C)CC` (configuration not stated) [5-methylheptan-3-one], for which the flash point was 43.00 °C.

In turn, `CC1CCC(=O)O1` (configuration not stated) [5-methyloxolan-2-one] yielded a flash point of 81.00 °C.

For `CC(=O)CCC=C(C)C` [6-methylhept-5-en-2-one], the flash point was determined as 57.00 °C.

In turn, `CC(C)CCCCCO` [6-methylheptan-1-ol] had a flash point of 82.00 °C.

With `CC(C)CCCCCOC(=O)C(C)Oc1cc(Cl)c(Cl)cc1Cl` (configuration not stated) [6-methylheptyl 2-(2,4,5-trichlorophenoxy)propanoate], the flash point was 207.00 °C.

`CC(C)CCCCCOC(=O)COc1ccc(Cl)cc1Cl` [6-methylheptyl 2-(2,4-dichlorophenoxy)acetate]: the flash point amounted to 48.00 °C.

In turn, `C=CC(=O)OCCCCCC(C)C` [6-methylheptyl prop-2-enoate] gave a flash point of 91.00 °C.

`CC(C)(C)CCCCCC(=O)O` [7,7-dimethyloctanoic acid] came in with a flash point of 94.00 °C.

`C=CC(=C)CCC=C(C)C` [7-methyl-3-methylideneocta-1,6-diene] yielded a flash point of 39.00 °C.

For `CC(C)CCCCCCCO` [8-methylnonan-1-ol], the flash point was found to be 104.00 °C.

The compound `CC(C)CCCCCCC=O` [8-methylnonanal] showed a flash point of 85.00 °C.

With `C=CC(=O)OCCCCCCCC(C)C` [8-methylnonyl prop-2-enoate], the flash point amounted to 116.00 °C.

Regarding `c1ccc2c(c1)[nH]c1ccccc12` [9H-carbazole], the flash point was 220.00 °C.

On to `c1ccc2c(c1)Cc1ccccc1-2` [9H-fluorene], for which the flash point stood at 151.00 °C.

With `c1ccc2c(c1)Nc1ccccc1S2` [10H-phenothiazine], the flash point came out at 202.00 °C.

`CC(=O)OC1CC2CCC1(C)C2(C)C` (configuration not stated) [(1,7,7-trimethyl-2-bicyclo[2.2.1]heptanyl) acetate]: the flash point came out at 88.00 °C.

On to `CC1(C)C2CC[C@@]1(C)C(=O)C2` [(1R)-1,7,7-trimethylbicyclo[2.2.1]heptan-2-one], for which the flash point turned out to be 64.00 °C.

In the case of `CC1(C)[C@@H]2CC[C@@]1(C)C(=O)C2` [(1R,4R)-1,7,7-trimethylbicyclo[2.2.1]heptan-2-one], the flash point turned out to be 47.00 °C.

Take `CC1(C)[C@@H]2CC[C@]1(C)[C@H](O)C2` [(1S,2R,4R)-1,7,7-trimethylbicyclo[2.2.1]heptan-2-ol]: the flash point was 66.00 °C.

`CC(=O)OC1CC(C)OC(C)O1` (configuration not stated) [(2,6-dimethyl-1,3-dioxan-4-yl) acetate]: the flash point was 61.00 °C.

`O=[N+]([O-])C(Br)=Cc1ccccc1` [(2-bromo-2-nitroethenyl)benzene] gave a flash point of 54.00 °C.

In turn, `COc1ccc(C(=O)c2ccccc2)c(O)c1` [(2-hydroxy-4-methoxyphenyl)-phenylmethanone] yielded a flash point of 100.00 °C.

In turn, `C=C(C)C1CC=C(C)C(OC(C)=O)C1` (configuration not stated) [(2-methyl-5-prop-1-en-2-ylcyclohex-2-en-1-yl) acetate] had a flash point of 97.00 °C.

For `Cc1ccccc1OP(=O)(Oc1ccccc1)Oc1ccccc1` [(2-methylphenyl) diphenyl phosphate], the flash point was 232.00 °C.

`CC(C)=CCC/C(C)=C/CO` [(2E)-3,7-dimethylocta-2,6-dien-1-ol] returned a flash point of 108.00 °C.

Regarding `C=CC/C=C/C` [(4E)-hexa-1,4-diene], the flash point was -21.00 °C.

Take `C=C(C)[C@H]1CC=C(C)C(=O)C1` [(5S)-2-methyl-5-prop-1-en-2-ylcyclohex-2-en-1-one]: the flash point worked out at 89.00 °C.

In turn, `Cl/C=C/CCl` [(E)-1,3-dichloroprop-1-ene] came in with a flash point of 35.00 °C.

For `Cc1cn(/C=C/C=O)c(=O)[nH]c1=O` [(E)-3-(5-methyl-2,4-dioxopyrimidin-1-yl)prop-2-enal], the flash point stood at 207.00 °C.

The compound `C/C=C/C=O` [(E)-but-2-enal] yielded a flash point of 13.00 °C.

For the compound `CC/C=C/C#N` [(E)-pent-2-enenitrile], the flash point worked out at 23.00 °C.

As for `C/C=C/CC#N` [(E)-pent-3-enenitrile], the flash point amounted to 38.00 °C.

On to `CSC(C)(C)/C=N/O` [(NE)-N-(2-methyl-2-methylsulfanylpropylidene)hydroxylamine], for which the flash point stood at 118.00 °C.

Compound `O=C1C=CCO1` [InChI=1S/C4H4O2/c5-4-2-1-3-6-4/h1-2H,3H2] displayed a flash point of 101.00 °C.

The compound `CCN(CC)CCCN` [N',N'-diethylpropane-1,3-diamine] had a flash point of 59.00 °C.

On to `CN(C)CCCN` [N',N'-dimethylpropane-1,3-diamine], for which the flash point turned out to be 16.00 °C.

The compound `NCCCNCCCN` [N'-(3-aminopropyl)propane-1,3-diamine] showed a flash point of 79.00 °C.

Regarding `NCCNCCNCCN` [N'-[2-(2-aminoethylamino)ethyl]ethane-1,2-diamine], the flash point was 135.00 °C.

Consider `Cc1ccc(N(C)C)cc1` [N,N,4-trimethylaniline], for which the flash point came to 76.00 °C.

For `CCN(CC)C(=O)c1cccc(C)c1` [N,N-diethyl-3-methylbenzamide], the flash point stood at 155.00 °C.

Consider `CCN(CC)c1ccccc1` [N,N-diethylaniline], for which the flash point is 85.00 °C.

On to `CCN(CC)CC` [N,N-diethylethanamine], for which the flash point is -7.00 °C.

For the compound `CCN(O)CC` [N,N-diethylhydroxylamine], the flash point amounted to 45.00 °C.

`CCN(CC)C(=O)c1cccnc1` [N,N-diethylpyridine-3-carboxamide] returned a flash point of 113.00 °C.

`CN(C)c1ccccc1` [N,N-dimethylaniline] returned a flash point of 63.00 °C.

In turn, `CN(C)C(=O)Cl` [N,N-dimethylcarbamoyl chloride] had a flash point of 68.00 °C.

Compound `c1ccc(N(c2ccccc2)c2ccccc2)cc1` [N,N-diphenylaniline] registered a flash point of 180.00 °C.

For the compound `CC(=O)NCCO` [N-(2-hydroxyethyl)acetamide], the flash point was found to be 177.00 °C.

In turn, `CC(=O)Nc1ccc(C)cc1` [N-(4-methylphenyl)acetamide] showed a flash point of 168.00 °C.

Turning to `CCCCCCCCCCCCCCCCCC(=O)NCCNC(=O)CCCCCCCCCCCCCCCCC` [N-[2-(octadecanoylamino)ethyl]octadecanamide], the flash point came to 280.00 °C.

Turning to `CC(=O)Nc1ccc(C(=O)CCl)cc1` [N-[4-(2-chloroacetyl)phenyl]acetamide], the flash point was found to be 110.00 °C.
